Laboratory results: patent US20140094510A1, “NON-AQUEOUS TAXANE NANODISPERSION FORMULATIONS AND METHODS OF USING THE SAME” (Teikoku Pharma USA, Inc., priority 2012, published 2014)

Assay: Solubility of anhydrous docetaxel in PEG 300 / PEG 400
Format: physicochemical
Details: per 1 g PEG 300; ultrasonic dispersion for 5 minutes at 70-80° C.
Protocol: Formulations of anhydrous docetaxel and either PEG 400 or PEG 300 were prepared and mixed using ultrasonic dispersion for 5 minutes at 70-80° C. 1 g of PEG 400 dissolved 25 mg of anhydrous docetaxel. […] 1 g of PEG 300 dissolved 100 mg of anhydrous docetaxel. Accordingly, PEG 300 was able to better solubilize anhydrous docetaxel.

amount of anhydrous docetaxel dissolved by 1 g of PEG 300: ≥ 100 mg
Structure (SMILES): CC(=O)O[C@@]12CO[C@@H]1C[C@H](O)[C@@]1(C)C(=O)[C@H](O)C3=C(C)[C@@H](OC(=O)[C@H](O)[C@@H](NC(=O)OC(C)(C)C)c4ccccc4)C[C@@](O)([C@@H](OC(=O)c4ccccc4)[C@H]21)C3(C)C [anhydrous docetaxel, (2R,3S)—N-carboxy-3-phenylisoserine,Ntert-butyl ester, 13-ester with 5β-20-epoxy-1,2α,4,7β,10β,13α-hexahydroxytax-11-en-9-one 4-acetate 2-benzoate]
